Earlier results in patent US7897615B2 (Chugai Sciyaku Kabushiki Kaisha, priority 2003, dated 2011).

Assays:
[1] = test system: human breast cancer cells
CPT-I muscle (M) isoform = conditions: muscle isoform of CPT-I

Row | IC50 (CPT-I muscle (M) isoform) | SMILES | antitumor activity [1] | malonyl-CoA level ([1]; breast carcinoma cells)
1 | – | CCCCCCCCCCCCCCOc1ccc(C(=O)O)o1 [TOFA, 5-(tetradecyloxy)-2-furoic acid] | does not show any antitumor activity | 60 % of the control
2 | 0.03 µM | CC(C)(COP(=O)(O)OP(=O)(O)OC[C@H]1O[C@@H](n2cnc3c(N)ncnc32)[C@H](O)[C@@H]1OP(=O)(O)O)[C@@H](O)C(=O)NCCC(=O)NCCSC(=O)CC(=O)O [Malonyl-CoA] | – | –
